US20250154611A1, “SYSTEMS AND METHODS TO DETECT STEM CELL STRESS AND USES THEREOF” (Wayne State University, priority 2014, published 2025)
Where two headings read alike, the source gives them in different places. Where a SMILES comes first, the peptide text is derived from it. The star is where a group is joined. Cbz = O=C(OCc1ccccc1)*

Experiments:
TSCs = format: cell-based, mouse; details: 7 days
Method: (FIG. 10A) TSCs were incubated for 7 days±FGF4 at 20%, 2%, or 0.5% O2 with the mitochondrial activator DCA. TSCs were cultured for 7 days at 20% O2,±FGF4, and with mitochondrial inhibitors antimycin A or cyanide (FIG. 10B). The cells were then lysed and assayed by qPCR for the relative levels of 5 terminal differentiation markers PL1, PL2, Plf, CtsQ, and synTa. The experiment was repeated 3 times and bars show the average±s.e.m., (a) indicates no significant difference and (b) indicates a significant difference (p<0.05) between TSCs with FGF4 removed without or with mitochondrial agonist or antagonist. Where changes in markers are significant (b), the increase or decrease due to mitochondrial agonist or antagonist is shown above the histogram bar.
RNA isolation and quantitative reverse transcription-PCR (qRT-PCR). […] Briefly, DNase-treated total RNA was isolated following cDNA preparation using QuantiTect Reverse Transcription Kit iScript (Qiagen). Assays were performed using Fast SYBR Green on a System 7500 instrument (Applied Biosystems), and a one-step program for 40 cycles. Each experiment was carried out in triplicate, and all three genes for TSC multipotency were normalized against 18S rRNA.
To test the necessity and sufficiency of mitochondrial function for TSC differentiation, 2 mitochondrial inhibitors and an agonist were used. The mitochondrial activator dichloroacetate (DCA) was tested at 0.5%-20% O2 (FIG. 10A).
Cyanide and antimycin A inhibit COX (part of mitochondrial complex IV) and complex III, respectively, and were used to inhibit the ETC and thus the generation of Δψm for 7 days of culture at optimal differentiation conditions (FIG. 10B).

[1] = system: mitochondrial membrane potential (ΔΨm)
Method: Mitochondrial staining by MitoTracker dye. TSC were cultured at different O2 levels at least 24 hr stained with DAPI (D21490, Invitrogen) alone or with either MitoTracker Red FM (Invitrogen), TMRM (T668), or JC-1 (T3168, Invitrogen) alone or with the uncoupler FCCP (Sigma), and analyzed under a DM-IRE2 fluorescence microscope (Leica, Germany) using Simple PCI image acquisition software (Hamamatsu, Sewickley, PA).
In more detail, TSC were cultured on coverslips in 12-well plates at different O2 levels either with or without FGF4, for 48 hr. Before experiments were conducted at low O2 tension, TSC were adapted in a hypoxia chamber (Billups-Rothenberg, CA) at the given O2 level described above for at least 24 hr. Nuclear dye 2.5 μg/ml DAPI (D21490, Invitrogen) was applied as a counterstain 1 hr before TSC were incubated alone with either 50 nM MitoTracker Red FM (M22425m, Invitrogen) for 30 min, 20 nM TMRM (T668) for 30 min, or 3.25 nM JC-1 (T3168, Invitrogen) for 45 min, or in combination with the uncoupler FCCP (1 nM, Sigma, C2920). After staining, the TSC were washed with PBS 2 times and immediately analyzed under a DM-IRE2 fluorescence microscope (Leica, Germany) using Simple PCI image acquisition software (Hamamatsu, Sewickley, PA).
The roles of FGF4 and O2 on Δψm associated with ATP production was determined. […]

AKT = target: T1, AKT (Mus musculus, UniProt P31750); test: phospho-AKT western blot in mESCs under 200 mM sorbitol; format: cell-based; details: mESCs, 4 hr, 200 mM sorbitol
T1 construct: endogenous in cells; host or cells: mESC-D3 (ATCC)
Method: (§1) FIG. 14. […] Blots are representative of triplicate experiments. Phospho-proteins and their loading controls are grouped between black lines.
(§2) FIG. 15. […] Blots are representative of triplicate experiments.
(§3) Hyperosmotic activation of signaling enzymes. […] Zhong, 2010; Xie, 2011. […] To determine the kinetics of activation of these five kinases in the described system, mESCs were treated with 200 mM sorbitol for 1 hr. Expression levels of the activated (i.e., phosphorylated) enzymes were assayed by western blot analysis (FIG. 14), including phospho-p38MAPK, phospho-JNK, phospho-MEK1/2, and phospho-AKT (the downstream effector of PI3K signaling).
(§4) Efficacy of enzyme inhibitors.

[2] = system: Oct4, Nanog, and Rex1 protein in mESCs; test: Proteasome inhibitor effects on Oct4, Nanog, and Rex1 during sorbitol stimulation of mESCs; format: cell-based, mouse; details: 4 hr; for stress-induced loss of Oct4, Nanog, and Rex1: 200 mM sorbitol
Method: FIG. 17. MG132 proteasome inhibitor effects on Oct4, Nanog, and Rex1 during sorbitol stimulation of mESCs. mESCs were treated for 4 hr with 0 or 200 mM sorbitol±10 μM MG132 and then lysed.
FIGS. 18A-18D. Lactacystin effects on Oct4, Nanog, Rex1 during sorbitol stimulation of mESCs. mESCs were treated for 4 hr±200 mM sorbitol±25, 50 μM lactacystin, then photographed before lysing. […] ANOVA+Student-Newman-Keuls post hoc tests, Oct4 p=0.000; Nanog p=0.035; Rex1 p=0.11. FIG. 18D) mESCs were stressed with or without lactacystin and micrographs were taken at 100×. Scale bar=50 μm.
Hyperosmotic-stress-induced loss of potency TFs due to proteasomal degradation. To determine the mechanism of TF protein loss during stress, mESCs were treated with one of two proteasome inhibitors, MG132 (FIG. 17) and lactacystin (FIGS. 18A-18D). […] Oct4 loss was reversed by 75%, Nanog by 93%, and Rex1 by 310% in 4 hr of proteasome inhibition by MG132.

[3] = system: Oct4, Nanog, and Rex1 expression in mESC; test: Inhibitor only effects on Oct4, Nanog, and Rex1 expression (western blot); format: cell-based, mouse
ERK1/2 = test: phospho-ERK1/2 western blot in mESCs under 200 mM sorbitol
Method: Cells were lysed and proteins were fractionated using SDS-PAGE, blotted, and probed for phospho-p38 (Thr180/Tyr182), phospho-JNK (Thr183/Tyr185), phospho-ERK1/2 (Thr202/Tyr204), or phospho-AKT (Ser473). Blots are representative of triplicate experiments.
Western blot analysis. Sodium dodecyl sulfate-polyacrylamide gel electrophoresis and western immunoblot analysis of mESC lysates were performed as previously described. […] Cells were harvested with cold lysis buffer (Cell Signaling) and protein was quantified by BCA assay (Pierce, Rockford, IL). Ten to twenty micrograms of aliquots were fractionated on 10% polyacrylamide precast gels (Bio-Rad, Hercules, CA), transferred to nitrocellulose membranes (Amersham Biosciences, Aylesbury, UK), probed overnight with primary antibodies, and developed as previously described. […] Protein bands were visualized using the ECL Advance Western Blotting Detection Kit (GE Healthcare, Waukesha, WI), blot was scanned to obtain an electronic image, and intensity of protein bands was quantified using Image J analysis software (rsbweb.nih.gov) and normalized to amido black staining. […] Data are expressed as the change in expression relative to no treatment at time zero.

[4] = system: Oct4, Nanog, and Rex1 expression in mESC; test: TF expression levels during hyperosmotic stress +/- enzyme inhibition in mESC monolayer culture (western blot)
Method: Histograms show relative expression of each protein when normalized to amido black expression. Error flags represent standard error of the mean (n≥3). “*” denotes significant difference from unstressed mESCs. “a” indicates significant difference from stress-only time point. ANOVA and Student-Newman-Keuls post hoc tests (P<0.05).
(FIG. 20A) mESCs were incubated±200 mM sorbitol for 0-24 hr and ±p38 inhibitor SB202190 (10 μM). mESCs were lysed, and proteins were fractionated using SDS-PAGE, blotted, and probed for Oct4 or Nanog. (FIG. 20B) Phase micrographs of mESCs following 24 hr of culture in the presence/absence of stress and p38MAPK inhibitor, SB202190. Scale bars=50 μm. (FIG. 20C) mESCs were incubated±200 mM sorbitol for 0-24 hr±either U0126 or LY294002 (25 μM). mESCs were lysed and proteins were fractionated using SDS-PAGE, blotted, and probed for Oct4 or Nanog. Histograms show relative expression of each protein when normalized to amido black expression. Error flags represent standard error of the mean (n≥3). “*” denotes significant difference from unstressed mESCs. “a” indicates significant difference from stress-only time point. ANOVA and Student-Newman-Keuls post hoc tests (P<0.05).
(FIG. 21A) mESCs were incubated±200 mM sorbitol for 0-24 hr±(A) p38MAPK inhibitor SB202190 (10 μM) or PI3K inhibitor LY294002 (25 μM); or JNK inhibitor L-JNKi-1 (2 μM). mESCs were lysed, and proteins were fractionated using SDS-PAGE, blotted, and probed for Rex1. Histograms show relative expression of each protein when normalized to amido black expression. Error flags represent standard error of the mean (n≥3). “*” denotes significant difference from unstressed mESCs. “a” indicates significant difference from stress-only time point. ANOVA and Student-Newman-Keuls post hoc tests (P<0.05). (FIG. 21B) To test the reversibility of the Rex1 loss during sorbitol stress, mESCs were incubated−200 mM sorbitol for 0-4 hr and then sorbitol was removed from some dishes for the remaining 20 hr (lane 5). Histogram is representative of two independent experiments.
Cell culture and stimulation. mESC-D3 cells (ATCC, Manassas, VA) were cultured in the absence of feeder cells in Dulbecco's modified Eagle's medium (Gibco, Grand Island, NY) supplemented with 15% mESC-screened fetal bovine serum (HyClone, Logan, UT), 2 mM L-glutamine, 1 mM sodium pyruvate, 1 mM nonessential amino acids, 0.1 mM 2-mercaptoethanol (Sigma), and 1,000 U/mL murine leukemia inhibitory factor (LIF; Millipore, Temecula, CA) on 0.1% gelatin-coated dishes at 37° C. in humidified air with 5% CO2. […] Osmolality was determined by freezing point depression using Advanced Instruments Wide Range Osmometer 3W2 (Advanced Instruments, Norwood, MA).
Enzyme inhibition. Enzyme inhibitors were chosen according to the specificity reported in the kinase inhibitor literature. […] Inhibitor concentrations were determined following dose response experiments for each inhibitor based on the range of concentrations determined from the mESC and kinase inhibitor literature.

p38MAPK = p38MAPK (Mus musculus, UniProt P47811); test: phospho-p38 western blot in mESCs under 200 mM sorbitol; format: cell-based
Method: as §1, §2, §3, §4

[5] = system: Trophoblast stem cells (TSCs); test: qPCR of lineage and multipotency markers in TSCs with or without SAPK inhibitors at 20, 2 or 0.5% O2; format: cell-based, mouse; details: TSCs + FGF4, 0.5-20% O2
Method: FIGS. 1A-1C. SAPK mediates decreased Gcm1 and Tpbpa and increased Hand1 at all O2 levels. There are greater effects as O2 deviates from the stemness optimum of 2% O2. Trophoblast stem cells (TSCs) were passaged and cultured at 20, 2, or 0.5% O2 overnight. FGF4 was replenished the next day at time zero, and SAPK inhibitor SP600125 (10 μm or 50 μM) was co-incubated with TSCs for 2 days at the indicated O2 levels±SP600125. Markers were quantitated using qPCR. (FIG. 1B) is a graph derived from data in (FIG. 1A), where the highest inhibited group was subtracted from the uninhibited group at each O2 level (the subtracted difference is shown as a color inset in the histogram bars of highest expression of each marker). […]
FIG. 2. […] RNA was isolated and quantitated using qPCR.
Cell lines and culture conditions. […] Quantitative removal of gas phase O2 requires 30 min in anaerobic bags, i.e., there was only a minimal period when 20% O2 was ambient to media that was pre-equilibrated under 0, 0.5, or 2% O2. […]
RNA isolation and quantitative reverse transcription-PCR (qRT-PCR). […] Briefly, DNase-treated total RNA was isolated following cDNA preparation using QuantiTect Reverse Transcription Kit […] (Qiagen). […]

[6] = 4 hr, 200 mM sorbitol + PD98059
[7] = 20% O2, FGF4 removed, sublethal concentration

p38MAPK, sequence (P47811 whole entry): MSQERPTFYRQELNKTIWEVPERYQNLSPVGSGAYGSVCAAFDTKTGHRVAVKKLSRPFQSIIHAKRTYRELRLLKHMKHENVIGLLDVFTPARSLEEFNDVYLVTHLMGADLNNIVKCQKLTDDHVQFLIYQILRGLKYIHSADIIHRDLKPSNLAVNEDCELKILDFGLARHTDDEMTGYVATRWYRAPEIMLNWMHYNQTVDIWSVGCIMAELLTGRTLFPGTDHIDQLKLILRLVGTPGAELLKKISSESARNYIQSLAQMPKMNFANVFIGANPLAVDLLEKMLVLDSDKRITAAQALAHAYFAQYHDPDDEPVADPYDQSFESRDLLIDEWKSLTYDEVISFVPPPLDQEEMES
T1 sequence (P31750 whole entry): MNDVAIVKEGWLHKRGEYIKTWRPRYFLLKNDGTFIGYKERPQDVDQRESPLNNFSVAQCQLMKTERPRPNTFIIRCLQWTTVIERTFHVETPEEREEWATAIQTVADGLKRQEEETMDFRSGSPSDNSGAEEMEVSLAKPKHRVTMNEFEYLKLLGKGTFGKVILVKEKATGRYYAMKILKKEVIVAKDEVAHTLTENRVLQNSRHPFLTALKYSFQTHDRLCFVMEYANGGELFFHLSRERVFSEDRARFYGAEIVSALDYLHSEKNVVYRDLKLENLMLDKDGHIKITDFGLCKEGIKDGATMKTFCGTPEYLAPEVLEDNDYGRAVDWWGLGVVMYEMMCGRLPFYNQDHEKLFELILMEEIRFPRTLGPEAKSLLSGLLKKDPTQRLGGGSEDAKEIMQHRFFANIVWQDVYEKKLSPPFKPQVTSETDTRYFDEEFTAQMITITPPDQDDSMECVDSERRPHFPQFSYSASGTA

O=C(O)C(Cl)Cl [DCA, dichloroacetate]
PL2 mRNA increase (TSCs; 2% O2): 2 fold
synTa mRNA increase (TSCs; 2% O2): 2 fold

N#CC(C#N)=NNc1ccc(OC(F)(F)F)cc1 [FCCP, Carbonyl cyanide 4-(trifluoromethoxy)phenylhydrazone]
JC1 stain fluorescence [1]: no fluorescence
effect on Δψm [1]: completely depolarizes

O=c1cc(N2CCOCC2)oc2c(-c3ccccc3)cccc12 [LY294002]
inhibition of AKT activation (average) (AKT): 88%

CC(C)C[C@@H](C=O)NC(=O)[C@H](CC(C)C)NC(=O)[C@H](CC(C)C)NC(=O)OCc1ccccc1 [MG132] (Cbz-Leu-Leu-Leu-aldehyde)
reversal of stress-induced Nanog loss ([2]; 10 μM MG132, 200 mM sorbitol): 93%
reversal of stress-induced Oct4 loss ([2]; 10 μM MG132, 200 mM sorbitol): 75%
reversal of stress-induced Rex1 loss ([2]; 10 μM MG132, 200 mM sorbitol): 310%
stress-induced loss of Oct4, Nanog, and Rex1 [2]: prevented

COc1cccc(-c2cc(=O)c3ccccc3o2)c1N [PD98059]
Nanog protein expression, inhibitor only ([3]; 24 hr inhibitor only, vs 24 hr no inhibitor, AKTi 10, LY294002 10, L-JNKi-1 2, SB202190 10, U0126 40, PD98059 20 μM): *1.54 ± 0.10%
inhibition of ERK1/2 activation (average) (ERK1/2; mESCs, 4 hr, 200 mM sorbitol): 30%
Nanog expression relative to unstressed level [4, 6]: 2.5 times
expression of Oct4 and Rex1 [4, 6]: remained at the unstressed baseline
Oct4 recovery ([4]; 24 hr, 200 mM sorbitol + inhibitor): did not prevent

Oc1ccc(-c2nc(-c3ccncc3)c(-c3ccc(F)cc3)[nH]2)cc1 [SB202190]
inhibition of p38MAPK activation (average) (p38MAPK): 60%
Nanog expression ([4]; 24 hr ongoing stress, 200 mM sorbitol + SB202190): 10%
Oct4 expression ([4]; 24 hr, 200 mM sorbitol + SB202190, did not recover from 4-h nadir): 50 % of unstressed levels

Oc1c2ccccc2c2c3c(cccc13)N=N2 [SP600125]
multipotency factors Cdx2, Id2, Errβ mRNA [5]: no effect

N#CC(=C(/N)Sc1ccccc1N)/C(C#N)=C(\N)Sc1ccccc1N [U0126]
Nanog protein expression, inhibitor only [3]: 0.94 ± 0.15%
Oct4 protein expression, inhibitor only [3]: 1.16 ± 0.31%
Rex1 protein expression, inhibitor only [3]: 0.72 ± 0.06%
inhibition of ERK1/2 activation (average) (ERK1/2): 87%
Oct4 or Nanog loss during stress [4]: did not prevent
Oct4 recovery [4]: prevented
Rex1 expression [4]: remained at unstressed levels

CC(=O)N[C@@H](CSC(=O)[C@]1([C@@H](O)C(C)C)NC(=O)[C@H](C)[C@@H]1O)C(=O)O [lactacystin]
stress-induced loss of Oct4, Nanog, and Rex1 [2]: prevented

antimycin A
Ctsq mRNA inhibited (TSCs; [7]): 81%
PL2 mRNA inhibited (TSCs; [7]): 98%
synTa mRNA inhibited (TSCs; [7]): 42%
